These results are taken from ChEMBL document CHEMBL3632500, “Developing structure-activity relationships from an HTS hit for inhibition of the Cks1-Skp2 protein-protein interaction” (Bioorg Med Chem Lett, 2015).

The target of assay [1] is T1, Cyclin-dependent kinases regulatory subunit 1/S-phase kinase-associated protein 2 (Homo sapiens, UniProt P61024+Q13309). The assay is described as follows: Inhibition of Cks1-Skp2 (unknown origin) interaction assessed as increase in p27-GFP level by western blot analysis. It counts as protein assay.
Target sequence in this assay (P61024 2-79 limits assumed): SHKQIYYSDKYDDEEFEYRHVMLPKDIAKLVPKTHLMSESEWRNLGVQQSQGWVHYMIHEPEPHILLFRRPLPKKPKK
Target sequence in this assay (Q13309 whole entry partner): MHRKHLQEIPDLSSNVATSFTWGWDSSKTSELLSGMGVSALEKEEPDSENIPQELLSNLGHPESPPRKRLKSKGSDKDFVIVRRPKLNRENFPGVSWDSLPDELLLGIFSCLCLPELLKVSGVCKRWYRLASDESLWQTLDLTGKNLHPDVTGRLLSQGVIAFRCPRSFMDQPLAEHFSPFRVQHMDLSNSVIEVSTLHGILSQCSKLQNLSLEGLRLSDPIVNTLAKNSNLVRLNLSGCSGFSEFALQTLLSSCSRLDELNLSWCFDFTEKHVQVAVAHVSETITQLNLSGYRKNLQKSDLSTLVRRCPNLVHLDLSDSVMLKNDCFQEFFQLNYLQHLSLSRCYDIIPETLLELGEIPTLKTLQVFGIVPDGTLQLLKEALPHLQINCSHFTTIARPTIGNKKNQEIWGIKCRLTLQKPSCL
Assay [2] has as its target T1, Cyclin-dependent kinases regulatory subunit 1/S-phase kinase-associated protein 2. The assay is described as follows: Inhibition of Cks1-Skp2 (unknown origin) interaction assessed as increase in p27-GFP level by ELISA. It counts as protein assay. A general note: An ELISA detects its analyte on a solid surface through an enzyme-linked reagent.
Target sequence in this assay (P61024 2-79 limits assumed): as the sequence (P61024 2-79 limits assumed) above
Target sequence in this assay (Q13309 whole entry partner): as the sequence (Q13309 whole entry partner) above
The test system of assay [3] is A549. Description: Antiproliferative activity against human A549 cells after 6 days. In kind it is functional. To be noted: A549, 144 h.
Assay [4] in a line: Antiproliferative activity against human HT1080 cells after 6 days. It counts as functional. To be noted: HT-1080, 144 h.
The next assay concerns NCI-H1299. The assay is described as follows: Antiproliferative activity against human H1299 cells after 2 days. It counts as functional, cell-based.
Assay [5] deals with A549. Description: Antiproliferative activity against human A549 cells after 2 days. In kind it is functional, cell-based.
In assay [6] the target is T1, Cyclin-dependent kinases regulatory subunit 1/S-phase kinase-associated protein 2. The assay is described as follows: Inhibition of Cks1-Skp2 (unknown origin) interaction after 30 mins by ELISA. It counts as protein assay.
[7] abbreviates: Homo sapiens, NCI-H1299, 48 h, read-out: IC50.
Setting [8] is: Homo sapiens, A549, 48 h, read-out: IC50.

Calls of active or inactive are those of the source. The rule behind the calls is not given here.

Regarding `O=S(=O)(Nc1ccc(-c2ccccc2)c2cccnc12)c1cccnc1`, the result in assay [1] and in assay [2] was Active.

On to `CS(=O)(=O)Nc1ccc(-c2cccnc2)c2cccnc12`, for which the result in assay [1] and in assay [2] was inactive.

`Cc1ccc(S(=O)(=O)Nc2ccc(-c3ccccc3)c3cccnc23)cc1`: the GI50 (commonly the concentration giving 50% growth inhibition) was determined as 2.36 µM with A549 [3] and 1.64 µM in assay [4]. For the same compound, the values for the IC50 with NCI-H1299 (setting [7]) and in the assay with A549 [5] (setting [8]) were 8.56 µM and 7.22 µM, respectively. Moreover, the outcome in assay [1] and in assay [2] was Active.

As for `Cc1ccc(S(=O)(=O)Nc2ccc(-c3cc4ccccc4s3)c3cccnc23)cc1`, the GI50 in the assay on A549 [3] stood at 0.39 µM; in assay [4], 0.15 µM. Further, the IC50 result with NCI-H1299 (nci-h1299) and with A549 [5] (a549) was “Not Active” throughout. The outcome in assay [1] and in assay [2] was Active.

For the compound `O=S(=O)(Nc1ccc(-c2cccnc2)c2cccnc12)C1CC1`, the result in assay [1] and in assay [2] was inactive.

Regarding `Cc1ccc(NS(=O)(=O)c2ccc(-c3ccccc3)c3cccnc23)cc1`, in assay [6], the inhibition entry is “inactive”.

As for `CS(=O)(=O)Nc1ccc(-c2ccncc2)c2cccnc12`, the IC50 (commonly the point on the concentration scale where inhibition reaches its midpoint) in assay [6] is recorded as “Not Active”. Also, the outcome in assay [1] and in assay [2] was inactive.

In the case of `COc1ccc(S(=O)(=O)Nc2ccc(-c3ccccc3)c3cccnc23)cc1`, the outcome in assay [1] and in assay [2] was Active.

Take `Cc1ccc(S(=O)(=O)Nc2ccc(-c3ccccc3)c3ccncc23)cc1`: in assay [6], the inhibition result was “inactive”.

In the case of `Cc1ccc(S(=O)(=O)N(C)c2cccc3cccnc23)cc1`, the inhibition entry in assay [6] is “inactive”.

Turning to `O=S(=O)(Nc1ccc(-c2ccncc2)c2cccnc12)c1cccnc1`, the GI50 is 5.88 µM in the assay with A549 [3] and 1.07 µM in assay [4]. Besides, the IC50 in the assay with NCI-H1299 (setting [7]) stood at 9.48 µM; in the assay with A549 [5] (setting [8]), 11.8 µM. Also, the result in assay [1] and in assay [2] was inactive.

With `Cc1ccc(S(=O)(=O)Nc2ccc(N3CCC(Cc4ccccc4)CC3)c3cccnc23)cc1`, the IC50 entry in assay [6] is on record as “Not Active”. For the same compound, the result in assay [1] and in assay [2] was inactive.

Turning to `Cc1ccc(S(=O)(=O)Nc2ccc(Br)c3cccnc23)cc1`, the result in assay [1] and in assay [2] was Active.

Turning to `Cc1ccc(S(=O)(=O)Nc2ccc(-c3ccco3)c3cccnc23)cc1`, the GI50 in the assay with A549 [3] stood at 26 µM; in assay [4] it was 9.78 µM. The IC50 entry in the assay with NCI-H1299 (nci-h1299) and in the assay with A549 [5] (a549) was “Not Active” in each case. Besides, the outcome in assay [1] and in assay [2] was Active.

As for `Cc1ccc(S(=O)(=O)Nc2ccc(-c3ccsc3)c3cccnc23)cc1`, the GI50 was determined as 2.36 µM with A549 [3] and 0.64 µM in assay [4]. In addition, the IC50 in the assay with NCI-H1299 (setting [7]) is 4.09 µM; in the assay with A549 [5] (setting [8]) it was 4.63 µM. Further, the outcome in assay [1] and in assay [2] was Active.

For `Cc1ccc(S(=O)(=O)Nc2cc(Oc3cccc(C#N)c3)cc3cccnc23)cc1`, the GI50 was determined as 6.48 µM in the assay with A549 [3] and 6.83 µM in assay [4]. The IC50 result in the assay with NCI-H1299 (nci-h1299) and in the assay with A549 [5] (a549) was “Not Active” throughout.

As for `Cc1ccc(S(=O)(=O)Nc2cc(Oc3cc(F)cc(F)c3)cc3cccnc23)cc1`, the GI50 with A549 [3] amounted to 4.11 µM; in assay [4], 0.08 µM. Besides, the IC50 with NCI-H1299 (setting [7]) worked out at 2.46 µM; in the assay with A549 [5] (setting [8]), 2.94 µM. The result in assay [1] and in assay [2] was Active.

Take `COc1ccc(S(=O)(=O)Nc2ccc(-c3ccncc3)c3cccnc23)cc1`: the 50% growth inhibitory concentration (GI50) amounted to 5.24 µM in the assay with A549 [3] and 1.07 µM in assay [4]. Moreover, the results for the IC50 result (with NCI-H1299 (nci-h1299); in assay [6] (read-out: IC50); in the assay on A549 [5] (a549)) were “Not Active”, 2.45 µM and “Not Active”, respectively. The result in assay [1] and in assay [2] was Active.

Take `Cc1ccc(S(=O)(=O)Nc2ccc(N3CCOCC3)c3cccnc23)cc1`: the IC50 entry in assay [6] is reported as “Not Active”. In addition, the result in assay [1] and in assay [2] was inactive.

`Cc1ccc(S(=O)(=O)Nc2cccc3cccnc23)cc1`: the GI50 in the assay with A549 [3] stood at 2.48 µM; in assay [4], 2.46 µM. Also, the IC50 in the assay on NCI-H1299 (setting [7]) came out at 5.35 µM; in assay [6] (read-out: IC50), 2.18 µM; with A549 [5] (setting [8]), 7.54 µM. Besides, the outcome in assay [1] and in assay [2] was Active.

In the case of `O=S(=O)(Nc1ccc(-c2ccncc2)c2cccnc12)C1CC1`, the result in assay [1] and in assay [2] was inactive.

For the compound `O=S(=O)(Nc1ccc(-c2ccccc2)c2cccnc12)C1CC1`, the outcome in assay [1] and in assay [2] was inactive.

Take `Cc1ccc(C(=O)Nc2ccc(Br)c3cccnc23)cc1`: the inhibition result in assay [6] was “inactive”.

As to `O=S(=O)(Nc1ccc(-c2cccnc2)c2cccnc12)c1cccc(C(F)(F)F)c1`, the IC50 in the assay on NCI-H1299 (setting [7]) stood at 3.9 µM; in the assay with A549 [5] (setting [8]), 5.91 µM. Besides, the outcome in assay [1] and in assay [2] was Active.

On to `Cc1ccc(S(=O)(=O)Nc2ccc(Br)c3ccccc23)cc1`, for which the results for the GI50 (in the assay with A549 [3]; in assay [4]) were 48.5 µM and 27.4 µM, respectively. Moreover, the IC50 result in the assay with NCI-H1299 (nci-h1299) and with A549 [5] (a549) was “Not Active” throughout. In assay [6], the inhibition result is “inactive”.

`O=S(=O)(Nc1ccc(-c2ccccc2)c2cccnc12)c1cccc(C(F)(F)F)c1`: the result in assay [1] and in assay [2] was Active.

With `Cc1ccc(S(=O)(=O)Nc2ccc(-c3cccnc3)c3cccnc23)cc1`, the GI50 in the assay on A549 [3] came to 6.02 µM; in assay [4], 4.22 µM. Besides, the 50% inhibitory concentration (IC50) with NCI-H1299 (setting [7]) amounted to 6.95 µM; in the assay on A549 [5] (setting [8]) it was 7.13 µM. Also, the outcome in assay [1] and in assay [2] was Active.

On to `COc1ccc(S(=O)(=O)Nc2ccc(-c3cccnc3)c3cccnc23)cc1`, for which the GI50 was found to be 1.24 µM in the assay on A549 [3] and 0.44 µM in assay [4]. Further, the IC50 with NCI-H1299 (setting [7]) stood at 5.31 µM; in assay [6] (read-out: IC50), 0.58 µM; in the assay on A549 [5] (setting [8]) it was 7.94 µM. In addition, the result in assay [1] and in assay [2] was Active.

Consider `O=S(=O)(Nc1ccc(-c2cccnc2)c2cccnc12)c1cccnc1`, for which the GI50 in the assay on A549 [3] was determined as 0.91 µM; in assay [4], 0.4 µM. Further, the half-inhibitory concentration (IC50) with NCI-H1299 (setting [7]) is 1.05 µM; in the assay with A549 [5] (setting [8]), 1.49 µM. In addition, the outcome in assay [1] and in assay [2] was Active.

Turning to `Cc1ccc(S(=O)(=O)Nc2ccc(N3CCN(C)CC3)c3cccnc23)cc1`, the IC50 result in assay [6] is “Not Active”. The result in assay [1] and in assay [2] was inactive.

Turning to `COc1ccc(Oc2cc(NS(=O)(=O)c3ccc(C)cc3)c3ncccc3c2)cc1`, the GI50 in the assay with A549 [3] turned out to be 4.09 µM; in assay [4] it was 0.74 µM. Further, the IC50 with NCI-H1299 (setting [7]) was 11.3 µM; in the assay on A549 [5] (setting [8]), 16.9 µM. Besides, the outcome in assay [1] and in assay [2] was inactive.

Take `CS(=O)(=O)Nc1ccc(-c2ccccc2)c2cccnc12`: the result in assay [1] and in assay [2] was Active.
